According to publication PMC8445441, “Elucidating the mechanism by which synthetic helper peptides sensitize Pseudomonas aeruginosa to multiple antibiotics” (PLoS Pathogens, 2021):
Where two headings read alike, the source gives them in different places.

Experiments:
P. aeruginosa AUMC-Pa-1 = conditions: strain AUMC-Pa-1; antibiotic + D-11 (MICb/MICbc 128/4)
How it was run: (§1)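 Two-fold serial dilutions in MHB received an equal volume of bacteria (suspension about 1 × 10^6 CFU/mL). Plates were held 18 h at 37 °C, then read visually for growth. Triplicate, CLSI-based.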

P. aeruginosa AUMC-Pa-2 = conditions: strain AUMC-Pa-2; antibiotic + D-11 (MICb/MICbc 64/4)
How it was run: as §1

P. aeruginosa ATCC27853 = test: microbe, parasite or virus in culture; design: MICa: MIC of the antibiotic / MICac: MIC of the antibiotic in the combination: unit not given beside the values; conditions: for FICI: antibiotic + D-11 (MICb/MICbc 32/4); for MICac: MIC of the antibiotic in the combination: with D-11 at MICbc 4
How it was run: as §1

P. aeruginosa PA14 = test: microbe, parasite or virus in culture; design: MICa: MIC of the antibiotic / MICac: MIC of the antibiotic in the combination: unit not given beside the values; conditions: strain PA14; for FICI: antibiotic + D-11 (MICb/MICbc 128/4); for MICa: MIC of the antibiotic: antibiotic alone; for MICa: MIC of the antibiotic / MICac: MIC of the antibiotic in the combination: unit not given; for MICac: MIC of the antibiotic in the combination: with D-11 at MICbc 4
How it was run: as §1

P. aeruginosa NR-31041 = test: microbe, parasite or virus in culture; design: MICa: MIC of the antibiotic / MICac: MIC of the antibiotic in the combination: unit not given beside the values; conditions: for MIC: Pseudomonas aeruginosa, NR31041, 18 h, read-out: MICa: MIC of the antibiotic; for FICI / MICac: MIC of the antibiotic in the combination: strain NR-31041; for FICI: antibiotic + D-11 (MICb/MICbc 64/4); for MICac: MIC of the antibiotic in the combination: with D-11 at MICbc 4, unit not given
How it was run: as §1

P. aeruginosa PAK = test: microbe, parasite or virus in culture; design: MICa: MIC of the antibiotic / MICac: MIC of the antibiotic in the combination: unit not given beside the values; conditions: for MIC: Pseudomonas aeruginosa, 18 h, read-out: MICa: MIC of the antibiotic; for FICI / MICac: MIC of the antibiotic in the combination: strain PAK; for FICI: antibiotic + D-11 (MICb/MICbc 64/4); for MICac: MIC of the antibiotic in the combination: with D-11 at MICbc 4, unit not given
How it was run: as §1

P. aeruginosa NR-31040 = test: microbe, parasite or virus in culture; design: MICa: MIC of the antibiotic / MICac: MIC of the antibiotic in the combination: unit not given beside the values; conditions: for MIC: Pseudomonas aeruginosa, NR31040, 18 h, read-out: MICa: MIC of the antibiotic; for FICI / MICac: MIC of the antibiotic in the combination: strain NR-31040; for FICI: antibiotic + D-11 (MICb/MICbc 128/4); for MICac: MIC of the antibiotic in the combination: with D-11 at MICbc 4, unit not given
How it was run: as §1

P. aeruginosa AUMC-Pa-3 = test: microbe, parasite or virus in culture; conditions: for MIC: Pseudomonas aeruginosa, AUMCPA3, 18 h, read-out: MICa: MIC of the antibiotic; for FICI / MICac: MIC of the antibiotic in the combination: strain AUMC-Pa-3; for FICI: antibiotic + D-11 (MICb/MICbc 128/4); for MICac: MIC of the antibiotic in the combination: with D-11 at MICbc 4, unit not given
How it was run: as §1

P. aeruginosa AUMC-Pa-6 = test: microbe, parasite or virus in culture; conditions: for FICI: antibiotic + D-11 (MICb/MICbc 64/4); for MICac: MIC of the antibiotic in the combination: with D-11 at MICbc 4
How it was run: as §1

P. aeruginosa AUMC-Pa-4 = test: microbe, parasite or virus in culture; conditions: for MIC: Pseudomonas aeruginosa, AUMCPA4, 18 h, read-out: MICa: MIC of the antibiotic; for FICI / MICac: MIC of the antibiotic in the combination: strain AUMC-Pa-4; for FICI: antibiotic + D-11 (MICb/MICbc 128/4); for MICac: MIC of the antibiotic in the combination: with D-11 at MICbc 4, unit not given
How it was run: as §1

P. aeruginosa PAO1 = test: microbe, parasite or virus in culture; conditions: PAO1; for MIC: Pseudomonas aeruginosa, PAO1, 18 h, read-out: MICa: the MIC of antibiotics, S3 Table
How it was run: as §1

P. aeruginosa AUMC-Pa-5 = test: microbe, parasite or virus in culture; conditions: for FICI: antibiotic + D-11 (MICb/MICbc 64/4); for MICac: MIC of the antibiotic in the combination: with D-11 at MICbc 4
How it was run: as §1

P. aeruginosa HM-214 = conditions: strain HM-214; antibiotic + D-11 (MICb/MICbc 128/4)
How it was run: as §1

[1] = test system: clinical P. aeruginosa isolates; test: microbe, parasite or virus in culture; conditions: Pseudomonas aeruginosa, 18 h, antibiotic alone
How it was run: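 Broth microdilution per CLSI in MHB, two-fold drug dilutions mixed with an equal volume of bacteria at about 1 × 10^6 CFU/mL. After 18 h at 37 °C, MIC taken as the lowest concentration with no visible growth; run in triplicate.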

[2] = strain ATCC27853, unit not given
[3] = strain AUMC-Pa-6, unit not given
[4] = S3 Table, antibiotic + 2 μM D-11
[5] = S3 Table, antibiotic + 4 μM D-11
[6] = strain AUMC-Pa-5, unit not given
[7] = read-out: Antibiotic sensibility (MIC) of clinical P. aeruginosa isolate AUMC-Pa-1, strain AUMC-Pa-1
[8] = read-out: Antibiotic sensibility (MIC) of clinical P. aeruginosa isolate AUMC-Pa-2, strain AUMC-Pa-2
[9] = read-out: Antibiotic sensibility (MIC) of clinical P. aeruginosa isolate AUMC-Pa-3, strain AUMC-Pa-3
[10] = read-out: Antibiotic sensibility (MIC) of clinical P. aeruginosa isolate AUMC-Pa-4, strain AUMC-Pa-4
[11] = read-out: Antibiotic sensibility (MIC) of clinical P. aeruginosa isolate AUMC-Pa-5, strain AUMC-Pa-5
[12] = read-out: Antibiotic sensibility (MIC) of clinical P. aeruginosa isolate AUMC-Pa-6, strain AUMC-Pa-6
[13] = read-out: Antibiotic sensibility (MIC) of clinical P. aeruginosa isolate HM-214, strain HM-214
[14] = read-out: Antibiotic sensibility (MIC) of clinical P. aeruginosa isolate NR-31040, strain NR-31040
[15] = read-out: Antibiotic sensibility (MIC) of clinical P. aeruginosa isolate NR-31041, strain NR-31041

Q: What does the source list for `C[C@H]1c2cccc(O)c2C(=O)C2=C(O)[C@]3(O)C(=O)C(C(N)=O)=C(O)[C@@H](N(C)C)[C@@H]3[C@@H](O)[C@@H]21` [Doxycycline]?
A: FICI (P. aeruginosa AUMC-Pa-1): 0.063; FICI (P. aeruginosa AUMC-Pa-2): 0.188; MIC (P. aeruginosa ATCC27853; Pseudomonas aeruginosa, ATCC27853, 18 h, read-out: MICa: MIC of the antibiotic): 16 µM; FICI (P. aeruginosa ATCC27853; strain ATCC27853): 0.156; MICac: MIC of the antibiotic in the combination (P. aeruginosa ATCC27853; [2]): 0.5; FICI (P. aeruginosa PA14): 0.094; MICa: MIC of the antibiotic (P. aeruginosa PA14): 16; MICac: MIC of the antibiotic in the combination (P. aeruginosa PA14): 1; MIC (P. aeruginosa NR-31041): 16 µM; FICI (P. aeruginosa NR-31041): 0.094; MICac: MIC of the antibiotic in the combination (P. aeruginosa NR-31041): 0.5; MIC (P. aeruginosa PAK): 16 µM; FICI (P. aeruginosa PAK): 0.094; MICac: MIC of the antibiotic in the combination (P. aeruginosa PAK): 0.5; MIC (P. aeruginosa NR-31040): 16 µM; FICI (P. aeruginosa NR-31040): 0.039; MICac: MIC of the antibiotic in the combination (P. aeruginosa NR-31040): 0.125; MIC (P. aeruginosa AUMC-Pa-3): 16 µM; FICI (P. aeruginosa AUMC-Pa-3): 0.063; MICac: MIC of the antibiotic in the combination (P. aeruginosa AUMC-Pa-3): 0.5; FICI (P. aeruginosa AUMC-Pa-6; strain AUMC-Pa-6): 0.125; MICa: MIC of the antibiotic (P. aeruginosa AUMC-Pa-6; strain AUMC-Pa-6, antibiotic alone, unit not given): 16; MICac: MIC of the antibiotic in the combination (P. aeruginosa AUMC-Pa-6; [3]): 1; MIC (P. aeruginosa AUMC-Pa-4): 16 µM; FICI (P. aeruginosa AUMC-Pa-4): 0.063; MICac: MIC of the antibiotic in the combination (P. aeruginosa AUMC-Pa-4): 0.5; MIC (P. aeruginosa PAO1; antibiotic alone): 16 µM; FICI (P. aeruginosa PAO1; [4]): 0.094; FICI (P. aeruginosa PAO1; [5]): 0.141; MICac: the MIC for the antibiotic in the combination (P. aeruginosa PAO1; S3 Table, with 2 μM D-11): 0.5 µM; MICac: the MIC for the antibiotic in the combination (P. aeruginosa PAO1; S3 Table, with 4 μM D-11): 0.25 µM; MICa: the MIC of antibiotics (P. aeruginosa PAO1; S3 Table, antibiotic alone): 16 µM; FICI (P. aeruginosa AUMC-Pa-5; strain AUMC-Pa-5): 0.313; MICa: MIC of the antibiotic (P. aeruginosa AUMC-Pa-5; strain AUMC-Pa-5, antibiotic alone, unit not given): 8; MICac: MIC of the antibiotic in the combination (P. aeruginosa AUMC-Pa-5; [6]): 2; FICI (P. aeruginosa HM-214): 0.063; MIC [1, 7]: 32 µM; MIC [1, 8]: 8 µM; MIC [1, 9]: 16 µM; MIC [1, 10]: 16 µM; MIC [1, 11]: 8 µM; MIC [1, 12]: 16 µM; MIC [1, 13]: 16 µM; MIC [1, 14]: 16 µM; MIC [1, 15]: 16 µM

Q: What does the source list for `C[C@@H]1O[C@@H]1P(=O)(O)O` [Fosfomycin]?
A: FICI (P. aeruginosa AUMC-Pa-1): 0.281; FICI (P. aeruginosa AUMC-Pa-2): 0.188; FICI (P. aeruginosa ATCC27853; strain ATCC27853): 0.188; MICa: MIC of the antibiotic (P. aeruginosa ATCC27853; strain ATCC27853, antibiotic alone, unit not given): 128; MICac: MIC of the antibiotic in the combination (P. aeruginosa ATCC27853; [2]): 8; FICI (P. aeruginosa PA14): 0.281; MICa: MIC of the antibiotic (P. aeruginosa PA14): 128; MICac: MIC of the antibiotic in the combination (P. aeruginosa PA14): 32; MIC (P. aeruginosa NR-31041): > 128 µM; FICI (P. aeruginosa NR-31041): 0.563; MICac: MIC of the antibiotic in the combination (P. aeruginosa NR-31041): >128/128; MIC (P. aeruginosa PAK): > 128 µM; FICI (P. aeruginosa PAK): 0.313; MICac: MIC of the antibiotic in the combination (P. aeruginosa PAK): 64; MIC (P. aeruginosa NR-31040): > 128 µM; FICI (P. aeruginosa NR-31040): 0.531; MICac: MIC of the antibiotic in the combination (P. aeruginosa NR-31040): >128/128; MIC (P. aeruginosa AUMC-Pa-3): > 128 µM; FICI (P. aeruginosa AUMC-Pa-3): 0.156; MICac: MIC of the antibiotic in the combination (P. aeruginosa AUMC-Pa-3): 32; MIC (P. aeruginosa AUMC-Pa-6; Pseudomonas aeruginosa, AUMCPA6, 18 h, read-out: MICa: MIC of the antibiotic): > 128 µM; FICI (P. aeruginosa AUMC-Pa-6; strain AUMC-Pa-6): 1.063; MICac: MIC of the antibiotic in the combination (P. aeruginosa AUMC-Pa-6; [3]): >128/>128; MIC (P. aeruginosa AUMC-Pa-4): > 128 µM; FICI (P. aeruginosa AUMC-Pa-4): 1.031; MICac: MIC of the antibiotic in the combination (P. aeruginosa AUMC-Pa-4): >128/>128; MIC (P. aeruginosa PAO1; antibiotic alone): > 128 µM; FICI (P. aeruginosa PAO1; [4]): 0.188; FICI (P. aeruginosa PAO1; [5]): 0.188; MIC (P. aeruginosa AUMC-Pa-5; Pseudomonas aeruginosa, AUMCPA5, 18 h, read-out: MICa: MIC of the antibiotic): > 128 µM; FICI (P. aeruginosa AUMC-Pa-5; strain AUMC-Pa-5): 0.563; MICac: MIC of the antibiotic in the combination (P. aeruginosa AUMC-Pa-5; [6]): >128/128; FICI (P. aeruginosa HM-214): 0.281; MIC [1, 7]: > 128 µM; MIC [1, 8]: 128 µM; MIC [1, 9]: > 128 µM; MIC [1, 10]: > 128 µM; MIC [1, 11]: > 128 µM; MIC [1, 12]: > 128 µM; MIC [1, 13]: > 128 µM; MIC [1, 14]: > 128 µM; MIC [1, 15]: > 128 µM
